# According to ChEMBL document CHEMBL5291721, “A preclinical secondary pharmacology resource illuminates target-adverse drug reaction associations of marketed drugs” (Nat Commun, 2023):
# Experiments:
# Androgen receptor [1] = molecular target: T1, Androgen receptor (Rattus norvegicus, UniProt P15207)
# T1 sequence (P15207 whole entry): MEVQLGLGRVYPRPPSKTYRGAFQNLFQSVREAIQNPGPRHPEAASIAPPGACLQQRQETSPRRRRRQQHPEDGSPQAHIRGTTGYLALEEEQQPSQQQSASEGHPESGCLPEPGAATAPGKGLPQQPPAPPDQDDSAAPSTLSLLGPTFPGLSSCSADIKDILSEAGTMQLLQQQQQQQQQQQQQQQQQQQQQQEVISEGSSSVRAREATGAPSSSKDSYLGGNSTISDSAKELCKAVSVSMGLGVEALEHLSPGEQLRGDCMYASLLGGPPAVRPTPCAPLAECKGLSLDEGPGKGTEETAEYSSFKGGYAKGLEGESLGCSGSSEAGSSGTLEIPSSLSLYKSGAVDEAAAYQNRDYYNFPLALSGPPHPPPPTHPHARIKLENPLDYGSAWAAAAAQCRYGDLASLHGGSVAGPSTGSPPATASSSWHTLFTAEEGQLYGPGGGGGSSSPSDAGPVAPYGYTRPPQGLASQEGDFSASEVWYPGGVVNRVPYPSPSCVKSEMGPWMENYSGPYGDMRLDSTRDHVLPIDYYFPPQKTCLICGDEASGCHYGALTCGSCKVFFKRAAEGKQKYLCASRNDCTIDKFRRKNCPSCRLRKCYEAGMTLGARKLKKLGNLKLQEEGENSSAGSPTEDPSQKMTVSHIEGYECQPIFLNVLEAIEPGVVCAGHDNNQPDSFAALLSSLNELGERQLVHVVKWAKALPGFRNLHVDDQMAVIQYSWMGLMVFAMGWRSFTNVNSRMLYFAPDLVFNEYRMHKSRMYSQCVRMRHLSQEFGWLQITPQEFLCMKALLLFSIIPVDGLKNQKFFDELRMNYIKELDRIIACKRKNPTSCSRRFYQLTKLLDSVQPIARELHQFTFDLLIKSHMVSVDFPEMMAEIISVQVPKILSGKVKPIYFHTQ
# D(1A) dopamine receptor = D(1A) dopamine receptor (Homo sapiens, UniProt P21728)
# [2] = molecular target: Voltage-dependent N-type calcium channel subunit alpha-1B (Rattus norvegicus, UniProt Q02294); format: functional
# Histamine H2 receptor = Histamine H2 receptor (Homo sapiens, UniProt P25021)
# Androgen receptor [3] = molecular target: T1, Androgen receptor; format: functional
# [4] = molecular target: T2, Endothelin receptor type B (Homo sapiens, UniProt P24530)
# T2 sequence (P24530 whole entry): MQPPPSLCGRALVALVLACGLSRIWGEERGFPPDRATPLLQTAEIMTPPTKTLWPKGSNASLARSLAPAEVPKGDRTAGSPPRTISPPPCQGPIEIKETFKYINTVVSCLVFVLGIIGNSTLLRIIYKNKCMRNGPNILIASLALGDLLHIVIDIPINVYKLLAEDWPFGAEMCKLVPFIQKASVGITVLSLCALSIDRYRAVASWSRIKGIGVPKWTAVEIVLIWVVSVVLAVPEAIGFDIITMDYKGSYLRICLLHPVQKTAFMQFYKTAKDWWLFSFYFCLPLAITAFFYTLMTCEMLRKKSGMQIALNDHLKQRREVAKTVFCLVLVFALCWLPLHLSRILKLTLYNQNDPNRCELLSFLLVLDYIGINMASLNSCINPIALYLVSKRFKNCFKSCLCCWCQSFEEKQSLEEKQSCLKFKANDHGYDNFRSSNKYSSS
# Substance-P receptor = Substance-P receptor (Homo sapiens, UniProt P25103)
# [5] = molecular target: T3, Corticotropin-releasing factor receptor 2 (Homo sapiens, UniProt Q13324)
# T3 sequence (Q13324 whole entry): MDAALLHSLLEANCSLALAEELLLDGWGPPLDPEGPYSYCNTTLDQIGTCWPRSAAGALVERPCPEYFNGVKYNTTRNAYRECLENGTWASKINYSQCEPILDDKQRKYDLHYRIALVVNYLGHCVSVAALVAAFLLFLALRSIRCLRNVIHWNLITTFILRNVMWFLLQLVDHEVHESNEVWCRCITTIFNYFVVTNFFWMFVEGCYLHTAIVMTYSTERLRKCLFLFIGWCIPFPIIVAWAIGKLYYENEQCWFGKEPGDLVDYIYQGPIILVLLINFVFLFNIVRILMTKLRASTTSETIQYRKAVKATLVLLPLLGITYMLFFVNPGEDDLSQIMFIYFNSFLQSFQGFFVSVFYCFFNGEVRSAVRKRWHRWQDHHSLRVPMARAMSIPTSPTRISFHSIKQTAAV
# [6] = molecular target: Gamma-aminobutyric acid receptor subunit alpha-1 (Rattus norvegicus, UniProt P62813)
# Note: assay procedure not described here.
# Histamine H2 receptor, sequence (P25021 whole entry): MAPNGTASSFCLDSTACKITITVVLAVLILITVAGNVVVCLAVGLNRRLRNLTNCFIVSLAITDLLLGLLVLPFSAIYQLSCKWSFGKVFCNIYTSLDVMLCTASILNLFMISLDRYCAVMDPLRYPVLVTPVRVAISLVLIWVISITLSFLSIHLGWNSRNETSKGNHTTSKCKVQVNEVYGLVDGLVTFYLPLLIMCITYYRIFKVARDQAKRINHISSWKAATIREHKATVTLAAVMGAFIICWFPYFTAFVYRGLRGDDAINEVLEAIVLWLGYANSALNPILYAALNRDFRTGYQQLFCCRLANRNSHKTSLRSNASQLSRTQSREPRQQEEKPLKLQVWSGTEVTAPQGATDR
# Substance-P receptor, sequence (P25103 whole entry): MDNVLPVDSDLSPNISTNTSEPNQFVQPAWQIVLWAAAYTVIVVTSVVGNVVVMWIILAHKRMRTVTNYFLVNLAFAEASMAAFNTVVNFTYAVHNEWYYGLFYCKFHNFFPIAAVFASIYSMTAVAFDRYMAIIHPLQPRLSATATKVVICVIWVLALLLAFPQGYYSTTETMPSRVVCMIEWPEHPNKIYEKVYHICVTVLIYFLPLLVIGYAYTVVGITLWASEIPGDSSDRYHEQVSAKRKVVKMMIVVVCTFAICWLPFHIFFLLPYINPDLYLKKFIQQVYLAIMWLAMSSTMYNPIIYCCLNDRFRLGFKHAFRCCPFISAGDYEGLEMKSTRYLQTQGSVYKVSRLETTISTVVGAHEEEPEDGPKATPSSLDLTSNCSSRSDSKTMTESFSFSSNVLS
# D(1A) dopamine receptor, sequence (P21728 whole entry): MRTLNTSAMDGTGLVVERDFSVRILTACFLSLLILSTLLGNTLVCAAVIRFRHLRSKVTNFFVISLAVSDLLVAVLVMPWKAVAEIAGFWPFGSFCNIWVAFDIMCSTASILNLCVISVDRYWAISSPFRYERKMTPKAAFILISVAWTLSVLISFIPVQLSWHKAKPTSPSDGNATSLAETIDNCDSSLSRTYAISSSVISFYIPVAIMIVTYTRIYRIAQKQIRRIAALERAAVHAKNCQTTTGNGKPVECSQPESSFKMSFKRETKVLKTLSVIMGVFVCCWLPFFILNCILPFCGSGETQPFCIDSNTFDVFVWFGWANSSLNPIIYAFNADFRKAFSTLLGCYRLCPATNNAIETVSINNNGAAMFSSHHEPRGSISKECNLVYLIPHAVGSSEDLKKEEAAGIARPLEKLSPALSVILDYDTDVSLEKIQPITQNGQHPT
# Voltage-dependent N-type calcium channel subunit alpha-1B, sequence (Q02294 whole entry): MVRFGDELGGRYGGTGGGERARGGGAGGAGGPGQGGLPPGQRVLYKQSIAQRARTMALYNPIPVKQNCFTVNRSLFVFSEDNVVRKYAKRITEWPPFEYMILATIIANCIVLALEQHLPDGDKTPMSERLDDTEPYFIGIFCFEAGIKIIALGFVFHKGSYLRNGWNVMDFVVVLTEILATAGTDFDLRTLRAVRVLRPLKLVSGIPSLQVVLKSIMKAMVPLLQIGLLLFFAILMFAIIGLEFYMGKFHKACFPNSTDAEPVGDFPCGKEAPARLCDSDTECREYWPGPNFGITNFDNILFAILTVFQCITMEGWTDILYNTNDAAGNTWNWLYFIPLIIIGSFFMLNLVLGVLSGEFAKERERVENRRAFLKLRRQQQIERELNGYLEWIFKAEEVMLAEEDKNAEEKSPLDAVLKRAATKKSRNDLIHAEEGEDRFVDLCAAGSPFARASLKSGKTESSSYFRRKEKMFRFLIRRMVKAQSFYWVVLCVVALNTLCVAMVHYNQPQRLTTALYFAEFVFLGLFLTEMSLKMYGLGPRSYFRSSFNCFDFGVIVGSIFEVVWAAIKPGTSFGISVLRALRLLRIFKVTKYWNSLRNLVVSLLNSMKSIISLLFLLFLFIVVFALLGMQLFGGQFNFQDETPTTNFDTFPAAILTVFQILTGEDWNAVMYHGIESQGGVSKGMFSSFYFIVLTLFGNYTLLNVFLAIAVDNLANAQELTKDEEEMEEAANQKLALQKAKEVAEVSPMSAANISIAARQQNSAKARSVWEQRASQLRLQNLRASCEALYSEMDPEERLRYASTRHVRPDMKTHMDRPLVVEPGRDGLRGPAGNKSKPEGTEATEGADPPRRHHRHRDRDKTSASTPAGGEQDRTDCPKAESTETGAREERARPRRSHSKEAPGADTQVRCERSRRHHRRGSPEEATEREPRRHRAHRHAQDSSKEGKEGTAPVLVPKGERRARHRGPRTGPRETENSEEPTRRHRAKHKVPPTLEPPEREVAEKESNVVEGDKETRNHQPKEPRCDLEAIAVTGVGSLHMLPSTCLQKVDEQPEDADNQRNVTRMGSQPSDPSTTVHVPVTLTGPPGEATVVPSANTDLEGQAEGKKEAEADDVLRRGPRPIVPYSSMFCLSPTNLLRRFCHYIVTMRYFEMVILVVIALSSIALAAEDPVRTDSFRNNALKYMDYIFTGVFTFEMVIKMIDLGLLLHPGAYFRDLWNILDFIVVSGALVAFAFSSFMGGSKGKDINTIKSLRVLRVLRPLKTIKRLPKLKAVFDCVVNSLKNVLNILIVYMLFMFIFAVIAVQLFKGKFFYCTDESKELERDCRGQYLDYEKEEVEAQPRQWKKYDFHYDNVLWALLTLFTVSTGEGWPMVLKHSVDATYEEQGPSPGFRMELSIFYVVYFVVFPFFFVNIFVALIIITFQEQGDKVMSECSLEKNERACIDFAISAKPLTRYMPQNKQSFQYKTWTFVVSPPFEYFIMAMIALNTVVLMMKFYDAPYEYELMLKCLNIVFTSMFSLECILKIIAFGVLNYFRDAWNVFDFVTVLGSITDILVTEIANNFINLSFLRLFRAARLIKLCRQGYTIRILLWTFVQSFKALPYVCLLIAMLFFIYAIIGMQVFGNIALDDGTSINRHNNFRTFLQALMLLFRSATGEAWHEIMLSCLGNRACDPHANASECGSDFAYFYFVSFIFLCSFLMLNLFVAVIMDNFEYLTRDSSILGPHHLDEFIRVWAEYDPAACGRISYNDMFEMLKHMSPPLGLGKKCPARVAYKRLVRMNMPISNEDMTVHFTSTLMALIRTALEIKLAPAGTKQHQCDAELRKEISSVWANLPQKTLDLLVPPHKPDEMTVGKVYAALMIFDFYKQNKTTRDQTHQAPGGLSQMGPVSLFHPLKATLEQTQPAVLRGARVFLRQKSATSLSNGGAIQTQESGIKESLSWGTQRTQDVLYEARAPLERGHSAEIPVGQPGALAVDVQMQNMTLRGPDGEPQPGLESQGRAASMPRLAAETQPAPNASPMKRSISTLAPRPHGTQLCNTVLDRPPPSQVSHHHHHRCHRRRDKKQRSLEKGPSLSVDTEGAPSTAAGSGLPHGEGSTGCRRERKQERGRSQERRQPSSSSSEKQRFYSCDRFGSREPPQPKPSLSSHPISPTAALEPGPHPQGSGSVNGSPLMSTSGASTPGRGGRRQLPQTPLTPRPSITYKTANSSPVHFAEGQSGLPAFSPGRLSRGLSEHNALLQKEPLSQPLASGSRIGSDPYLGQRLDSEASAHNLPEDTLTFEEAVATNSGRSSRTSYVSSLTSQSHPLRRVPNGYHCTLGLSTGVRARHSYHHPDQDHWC
# Gamma-aminobutyric acid receptor subunit alpha-1, sequence (P62813 whole entry): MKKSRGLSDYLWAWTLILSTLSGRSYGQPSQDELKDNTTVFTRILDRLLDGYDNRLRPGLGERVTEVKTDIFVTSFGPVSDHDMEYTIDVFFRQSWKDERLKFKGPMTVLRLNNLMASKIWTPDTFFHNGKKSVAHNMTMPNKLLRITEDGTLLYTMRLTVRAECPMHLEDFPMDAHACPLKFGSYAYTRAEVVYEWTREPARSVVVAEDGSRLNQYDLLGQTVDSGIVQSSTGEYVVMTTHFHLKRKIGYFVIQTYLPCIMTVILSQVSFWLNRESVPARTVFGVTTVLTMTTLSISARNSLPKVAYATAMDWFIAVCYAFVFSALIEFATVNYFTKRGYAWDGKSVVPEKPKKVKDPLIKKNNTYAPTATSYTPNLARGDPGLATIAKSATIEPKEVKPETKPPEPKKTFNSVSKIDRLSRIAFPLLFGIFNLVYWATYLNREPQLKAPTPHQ
smiles,measurement,setting,value
CNC1=Nc2ccc(Cl)cc2C(c2ccccc2)=[N+]([O-])C1 [CHLORDIAZEPOXIDE],AC50,Androgen receptor [1],> 30 µM
CCC[C@H](NC(=O)[C@@H]1[C@H]2CCC[C@H]2CN1C(=O)[C@@H](NC(=O)[C@@H](NC(=O)c1cnccn1)C1CCCCC1)C(C)(C)C)C(=O)C(=O)NC1CC1,AC50,D(1A) dopamine receptor,> 10 µM
same,AC50,[2],> 10 µM
same,AC50,Histamine H2 receptor,> 10 µM
same,AC50,Androgen receptor [1],> 30 µM
OC1(c2ccc(Cl)cc2)c2ccccc2C2=NCCN21 (stereo not given) [MAZINDOL],AC50,D(1A) dopamine receptor,> 10 µM
same,AC50,Androgen receptor [3],> 30 µM
same,AC50,[4],33.1 µM
same,AC50,[2],> 10 µM
same,AC50,Histamine H2 receptor,> 10 µM
same,AC50,Androgen receptor [1],> 30 µM
same,AC50,Substance-P receptor,> 10 µM
same,AC50,[5],> 30 µM
CC1OC2(CS1)CN1CCC2CC1 (stereo not given) [CEVIMELINE],AC50,Androgen receptor [1],> 10 µM
CCC(=O)O[C@]1(C(=O)SCF)[C@H](C)C[C@H]2[C@@H]3C[C@H](F)C4=CC(=O)C=C[C@]4(C)[C@@]3(F)[C@@H](O)C[C@@]21C [FLUTICASONE PROPIONATE],AC50,D(1A) dopamine receptor,> 10 µM
same,AC50,[4],> 30 µM
same,AC50,[2],> 10 µM
same,AC50,Histamine H2 receptor,> 10 µM
same,AC50,Substance-P receptor,> 10 µM
same,AC50,[5],> 30 µM
same,AC50,[6],> 30 µM
CNCc1ccc(-c2[nH]c3cc(F)cc4c3c2CCNC4=O)cc1 [RUCAPARIB],AC50,Androgen receptor [1],> 30 µM
CCC1(c2ccccc2)CCC(=O)NC1=O (stereo not given) [GLUTETHIMIDE],AC50,Androgen receptor [1],> 10 µM
CCC(=O)O[C@H]1CC[C@H]2[C@@H]3CCC4=CC(=O)CC[C@]4(C)[C@H]3CC[C@]12C [TESTOSTERONE PROPIONATE],AC50,Androgen receptor [1],1.7 µM
CC(N)C(O)c1ccccc1 (stereo not given) [PHENYLPROPANOLAMINE],AC50,D(1A) dopamine receptor,> 10 µM
same,AC50,[4],> 30 µM
same,AC50,[2],> 10 µM
same,AC50,Histamine H2 receptor,> 10 µM
same,AC50,Substance-P receptor,> 10 µM
same,AC50,[5],> 30 µM
